The values below come from patent publication US8022102B2, “Unsaturated tetracyclic tetrahydrofuran derivatives” (Janssen Pharmaceutica, NV, priority 2004, dated 2011).

The target in test [1] is T1, human cloned 5-HT2A receptor (Homo sapiens, UniProt P28223).
T1 construct: expressed in transfected cells; host or cells: L929 cells
The test is described as follows: In vitro binding affinity for 5-HT2A receptor (radioligand binding). How it is done:
During the incubation, the radioligands bind to the receptor. When equilibrium of binding is reached, the receptor bound radioactivity is separated from the non-bound radioactivity, and the receptor bound activity is counted. The interaction of the test compounds with the receptors is assessed in competition binding experiments. Various concentrations of the test compound are added to the incubation mixture containing the tissue preparation and the radioligand. Binding of the radioligand will be inhibited by the test compound in proportion to its binding affinity and its concentration. The affinities of the compounds for the 5-HT2 receptors were measured by means of radioligand binding studies conducted with: (a) human cloned 5-HT2A receptor, expressed in L929 cells using [^125I]R91150 as radioligand and (b) human cloned 5-HT2C receptor, expressed in CHO cells using [^3H]mesulergine as radioligand.

The target of test [2] is T2, human cloned 5-HT2C receptor (Homo sapiens, UniProt P28335).
T2 construct: expressed in transfected cells; host or cells: CHO cells
T2 sequence (P28335 33-458): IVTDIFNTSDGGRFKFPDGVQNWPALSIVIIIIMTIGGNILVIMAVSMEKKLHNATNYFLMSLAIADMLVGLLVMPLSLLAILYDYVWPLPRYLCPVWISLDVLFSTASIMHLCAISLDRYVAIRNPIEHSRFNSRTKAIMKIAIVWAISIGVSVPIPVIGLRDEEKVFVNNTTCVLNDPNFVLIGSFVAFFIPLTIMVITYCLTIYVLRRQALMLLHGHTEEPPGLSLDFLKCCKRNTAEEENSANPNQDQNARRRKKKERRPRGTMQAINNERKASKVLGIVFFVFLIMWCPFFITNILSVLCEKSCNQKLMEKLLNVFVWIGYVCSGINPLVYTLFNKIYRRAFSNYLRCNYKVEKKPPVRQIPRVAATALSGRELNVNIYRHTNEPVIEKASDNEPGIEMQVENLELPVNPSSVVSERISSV
The test is described as follows: In vitro binding affinity for 5-HT2C receptor (radioligand binding). How it is done: During the incubation, the radioligands bind to the receptor. When equilibrium of binding is reached, the receptor bound radioactivity is separated from the non-bound radioactivity, and the receptor bound activity is counted. The interaction of the test compounds with the receptors is assessed in competition binding experiments. Various concentrations of the test compound are added to the incubation mixture containing the tissue preparation and the radioligand. Binding of the radioligand will be inhibited by the test compound in proportion to its binding affinity and its concentration.

Test [3] has as its target T3, NET (Rattus norvegicus, UniProt Q9WTR4).
T3 construct: Cortex from rat brain was collected and homogenised; from tissue; host or cells: rat brain cortex
The test is described as follows: In vitro determination of NET reuptake inhibition ([3H]Nixosetine binding, rat brain cortex). The settings on record: rat brain cortex, [3H]Nixosetine. How it is done:
Cortex from rat brain was collected and homogenised using an Ultra-Turrax T25 and a Dual homogeniser in ice-cold homogenising buffer containing Tris, NaCl and KCl (50 mM, 120 mM and 5 mM, respectively, pH 7.4) prior to dilution to an appropriate protein concentration optimised for specific and non-specific binding. […] Membrane-bound activity was detected by filtration through a Packard Filtermate harvester onto GF/B Unifilterplates, washed with ice-cold Tris-HCl buffer, containing NaCl and KCl (50 mM, 120 mM and 4 mM; pH 7.4; 6×0.5 ml). Filters were allowed to dry for 24 h before adding scintillation fluid. Scintillation fluid was allowed to saturate filters for 24 h before counting in a Topcount scintillation counter. Percentage specific bound and competition binding curves were calculated using S-Plus software (Insightful).

Test [4] concerns the target T4, human Dopamine D2L receptor (Homo sapiens, UniProt P14416).
T4 construct: expressed in transfected cells; host or cells: CHO cells
The test is described as follows: In vitro binding affinity for human D2L receptor ([3H]Spiperone). The settings on record: human D2L receptor-transfected CHO cell membranes, [3H]Spiperone. Here is the method: Frozen membranes of human Dopamine D2L receptor-transfected CHO cells were thawed, briefly homogenised using an Ultra-Turrax T25 homogeniser and diluted in Tris-HCl assay buffer containing NaCl, CaCl2, MgCl2, KCl (50, 120, 2, 1, and 5 mM respectively, adjusted to pH 7.7 with HCl) to an appropriate protein concentration optimised for specific and non-specific binding. Radioligand [^3H]Spiperone (NEN, specific activity ˜70 Ci/mmol) was diluted in assay buffer at a concentration of 2 nmol/L. Prepared radioligand (50 μl), along with 50 μl of either the 10% DMSO control, Butaclamol (10^−6 mol/l final concentration), or compound of interest, was then incubated (30 min, 37° C.) with 400 μl of the prepared membrane solution. Membrane-bound activity was filtered through a Packard Filtermate harvester onto GF/B Unifilterplates and washed with ice-cold Tris-HCl buffer (50 mM; pH 7.7; 6×0.5 ml). Filters were allowed to dry before adding scintillation fluid and counting in a Topcount scintillation counter. Percentage specific bound and competition binding curves were calculated using S-Plus software (Insightful).

The mark [5] stands for this setting: human cloned 5-HT2A receptor, radioligand binding, read-out: h-5HT2A (converted).
Where [6] appears, read: human cloned 5-HT2C receptor, radioligand binding, read-out: h-5HT2C (converted).
[7] abbreviates: read-out: NET Reuptake Inhibition (converted).
Where [8] appears, read: h-5HT2A, human cloned 5-HT2A receptor, radioligand binding.
Where [9] appears, read: h-5HT2C, human cloned 5-HT2C receptor, radioligand binding.

Each structure is given as a SMILES string. Where two headings read alike, the source gives them in different places.

T3 sequence (Q9WTR4 1-597): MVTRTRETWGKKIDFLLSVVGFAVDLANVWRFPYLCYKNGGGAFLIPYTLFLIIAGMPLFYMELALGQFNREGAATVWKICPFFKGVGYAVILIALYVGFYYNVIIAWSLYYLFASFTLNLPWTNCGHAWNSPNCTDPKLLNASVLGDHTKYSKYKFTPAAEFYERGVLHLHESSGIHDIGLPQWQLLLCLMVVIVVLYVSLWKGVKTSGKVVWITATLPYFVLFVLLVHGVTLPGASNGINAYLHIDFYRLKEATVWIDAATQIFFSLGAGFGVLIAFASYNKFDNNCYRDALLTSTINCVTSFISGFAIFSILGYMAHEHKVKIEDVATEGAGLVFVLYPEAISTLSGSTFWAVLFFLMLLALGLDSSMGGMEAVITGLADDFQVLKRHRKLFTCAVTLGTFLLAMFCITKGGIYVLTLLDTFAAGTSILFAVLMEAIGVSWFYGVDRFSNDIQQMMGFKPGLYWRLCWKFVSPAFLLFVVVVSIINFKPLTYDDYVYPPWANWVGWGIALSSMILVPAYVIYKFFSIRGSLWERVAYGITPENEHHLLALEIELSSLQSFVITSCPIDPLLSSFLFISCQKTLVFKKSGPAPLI
T1 sequence (P28223 whole entry): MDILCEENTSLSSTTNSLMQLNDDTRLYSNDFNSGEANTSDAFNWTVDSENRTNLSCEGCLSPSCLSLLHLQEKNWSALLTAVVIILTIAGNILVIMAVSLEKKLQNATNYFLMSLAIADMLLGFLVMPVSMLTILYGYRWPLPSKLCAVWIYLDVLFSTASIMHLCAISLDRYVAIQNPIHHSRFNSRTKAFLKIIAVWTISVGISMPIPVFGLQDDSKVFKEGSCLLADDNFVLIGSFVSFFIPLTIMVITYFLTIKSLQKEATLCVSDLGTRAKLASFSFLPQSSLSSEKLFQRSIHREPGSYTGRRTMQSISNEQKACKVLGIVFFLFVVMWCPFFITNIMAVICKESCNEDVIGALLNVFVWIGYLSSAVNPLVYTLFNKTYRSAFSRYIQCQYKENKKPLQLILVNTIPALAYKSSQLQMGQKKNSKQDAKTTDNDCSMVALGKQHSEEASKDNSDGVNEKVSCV
T4 sequence (P14416 whole entry): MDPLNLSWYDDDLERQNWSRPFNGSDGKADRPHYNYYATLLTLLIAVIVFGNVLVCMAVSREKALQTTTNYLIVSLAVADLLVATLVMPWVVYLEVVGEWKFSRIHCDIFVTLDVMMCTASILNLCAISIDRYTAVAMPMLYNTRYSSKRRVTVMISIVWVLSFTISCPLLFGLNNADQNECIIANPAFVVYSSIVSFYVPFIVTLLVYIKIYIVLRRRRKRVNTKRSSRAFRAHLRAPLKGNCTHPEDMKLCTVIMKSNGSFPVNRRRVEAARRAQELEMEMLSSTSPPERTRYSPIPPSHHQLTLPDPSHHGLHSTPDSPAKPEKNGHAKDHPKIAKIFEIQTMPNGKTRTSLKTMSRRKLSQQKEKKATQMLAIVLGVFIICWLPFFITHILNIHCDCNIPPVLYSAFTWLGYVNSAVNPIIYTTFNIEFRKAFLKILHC

For the compound `CNC[C@@H]1CC2=C(O1)c1ccccc1[C@@H](C)c1ccccc12` (racemic) [Compound 9], the IC50 in test [1] (setting [5]) is 100 nM; in test [2] (setting [6]), 50.1 nM; in test [3] (setting [7]), 79.4 nM; in test [4] (read-out: h-D2L (converted)), 3980 nM.
For `CNCC1CC2=C(O1)c1cc(F)ccc1Cc1ccccc12` (stereo not drawn) [Compound 2], in that order: 0.631 nM, 1 nM, 15.8 nM and 79.4 nM.
Take `CNC[C@H]1CC2=C(O1)c1cc(F)ccc1Cc1ccccc12` [Compound 3]: the IC50 in test [1] (setting [5]) is 6.31 nM; in test [2] (setting [6]), 6.31 nM; in test [3] (setting [7]), 15.8 nM; in test [4] (read-out: h-D2L (converted)), 398 nM.
As for `CNC[C@@H]1CC2=C(O1)c1cc(F)ccc1Cc1ccccc12` [Compound 4], the IC50 in test [1] (human cloned 5-HT2A receptor expressed in L929 cells, [125I]R91150, read-out: h-5HT2A (converted)) is 0.501 nM; in test [1] (setting [5]) it was 0.501 nM; in test [2] (human cloned 5-HT2C receptor expressed in CHO cells, [3H]mesulergine, read-out: h-5HT2C (converted)), 0.631 nM; in test [2] (setting [6]), 0.631 nM; in test [3] (setting [7]), 10 nM; in test [4] (read-out: h-D2L (converted)), 63.1 nM.
In the case of `CNCC1CC2=C(O1)c1ccccc1C(C)c1ccccc12` (stereo not drawn) [Compound 7], the IC50 in test [1] (setting [5]) is 50.1 nM; in test [2] (setting [6]) it was 20 nM; in test [3] (setting [7]), 63.1 nM; in test [4] (read-out: h-D2L (converted)), 2000 nM.
For `C=C1c2ccccc2C2=C(OC(CNC)C2)c2ccccc21` (stereo not drawn) [Compound 11], the IC50 in test [1] (setting [5]) was 39.8 nM; in test [2] (setting [6]), 20 nM; in test [3] (setting [7]), 25.1 nM; in test [4] (read-out: h-D2L (converted)) it was 1580 nM.
For `CNCC1CC2=C(O1)c1cc(F)ccc1Oc1ccccc12` (stereo not drawn) [Compound 12], the IC50 in test [1] (setting [5]) was 12.6 nM; in test [2] (setting [6]), 7.94 nM; in test [3] (setting [7]), 39.8 nM; in test [4] (read-out: h-D2L (converted)), 200 nM.
Take `CN(C)CC1CC2=C(O1)c1ccccc1N(C)c1ccccc12` (stereo not drawn) [Compound 29]: the IC50 in test [1] (setting [5]) is 316 nM; in test [2] (setting [6]), 126 nM; in test [3] (setting [7]), 79.4 nM; in test [4] (read-out: h-D2L (converted)), 6310 nM.
The corresponding values for `CCS(=O)(=O)N1CCN(CC2CC3=C(O2)c2cc(F)ccc2Oc2ccccc23)CC1` (stereo not drawn) [Compound 47] are 158 nM, 200 nM, 398 nM and 1260 nM.
`O=S(=O)(c1ccccc1)N1CCN(CC2CC3=C(O2)c2cc(F)ccc2Cc2ccccc23)CC1` (stereo not drawn) [Compound 48]: the IC50 in test [1] (setting [5]) is 398 nM; in test [2] (setting [6]), 200 nM; in test [3] (setting [7]), more than 10000 nM; in test [4] (read-out: h-D2L (converted)) it was 3160 nM.
For `Cc1ccc(S(=O)(=O)N2CCN(CC3CC4=C(O3)c3cc(F)ccc3Oc3ccccc34)CC2)cc1` (stereo not drawn) [Compound 50], in that order: 200 nM, 316 nM, 1580 nM and 2000 nM.
Regarding `COC(=O)CC(=O)N1CCN(CC2CC3=C(O2)c2cc(F)ccc2Oc2ccccc23)CC1` (stereo not drawn) [Compound 60], the IC50 in test [2] (setting [6]) was 79.4 nM; in test [3] (setting [7]), 1580 nM; in test [4] (read-out: h-D2L (converted)), 2000 nM.
Turning to `CC(C)OC(=O)N1CCN(CC2CC3=C(O2)c2cc(F)ccc2Cc2ccccc23)CC1` (stereo not drawn) [Compound 63], the IC50 in test [1] (setting [5]) was 251 nM; in test [2] (setting [6]), 501 nM; in test [3] (setting [7]) it was more than 10000 nM; in test [4] (read-out: h-D2L (converted)), 3980 nM.
Take `O=C(Oc1ccccc1)N1CCN(CC2CC3=C(O2)c2cc(F)ccc2Cc2ccccc23)CC1` (stereo not drawn) [Compound 65]: the IC50 was 50.1 nM in test [1] (setting [8]), 126 nM in test [2] (setting [9]), 3160 nM in test [3] (NET Reuptake Inhibition) and 1000 nM in test [4] (h-D2L).
For `O=C(Oc1ccccc1)N1CCN(CC2CC3=C(O2)c2cc(F)ccc2Oc2ccccc23)CC1` (stereo not drawn) [Compound 66], in that order: 126 nM, 316 nM, 1260 nM and 794 nM.
With `COc1ccc(OC(=O)N2CCN(CC3CC4=C(O3)c3cc(F)ccc3Cc3ccccc34)CC2)cc1` (stereo not drawn) [Compound 67], the IC50 in test [1] (setting [8]) is 20 nM; in test [2] (setting [9]), 50.1 nM; in test [3] (NET Reuptake Inhibition), 3160 nM; in test [4] (h-D2L) it was 398 nM.
In the case of `COc1ccc(OC(=O)N2CCN(CC3CC4=C(O3)c3cc(F)ccc3Oc3ccccc34)CC2)cc1` (stereo not drawn) [Compound 68], the IC50 is 63.1 nM in test [1] (setting [8]), 251 nM in test [2] (setting [9]), 1580 nM in test [3] (NET Reuptake Inhibition) and 794 nM in test [4] (h-D2L).
On to `O=C(OCc1ccccc1)N1CCN(CC2CC3=C(O2)c2cc(F)ccc2Cc2ccccc23)CC1` (stereo not drawn) [Compound 69], for which the IC50 in test [1] (setting [5]) is 501 nM; in test [2] (setting [6]) it was 1000 nM; in test [3] (setting [7]), 7940 nM; in test [4] (read-out: h-D2L (converted)) it was 1260 nM.
For `O=C(OCc1ccccc1)N1CCN(CC2CC3=C(O2)c2cc(F)ccc2Oc2ccccc23)CC1` (stereo not drawn) [Compound 70], in that order: 1000 nM, 631 nM, more than 10000 nM and 251 nM.
In the case of `O=C(c1ccccc1)N1CCN(CC2CC3=C(O2)c2cc(F)ccc2Cc2ccccc23)CC1` (stereo not drawn) [Compound 71], the IC50 is 6.31 nM in test [1] (setting [5]), 15.8 nM in test [2] (setting [6]), 5010 nM in test [3] (setting [7]) and 126 nM in test [4] (read-out: h-D2L (converted)).
The corresponding values for `O=C(c1ccccc1)N1CCN(CC2CC3=C(O2)c2cc(F)ccc2Oc2ccccc23)CC1` (stereo not drawn) [Compound 72] are 25.1 nM, 63.1 nM, 6310 nM and 398 nM.
Consider `O=C(Nc1ccc(F)cc1)N1CCN(CC2CC3=C(O2)c2cc(F)ccc2Oc2ccccc23)CC1` (stereo not drawn) [Compound 86], for which the IC50 in test [2] (setting [6]) was 39.8 nM; in test [3] (setting [7]), more than 10000 nM; in test [4] (read-out: h-D2L (converted)), 251 nM.
Consider `O=C(NCc1ccccc1)N1CCN(CC2CC3=C(O2)c2cc(F)ccc2Cc2ccccc23)CC1` (stereo not drawn) [Compound 87], for which the IC50 in test [1] (setting [5]) was 631 nM; in test [2] (setting [6]) it was 100 nM; in test [3] (setting [7]), 7940 nM; in test [4] (read-out: h-D2L (converted)), 794 nM.
`O=C(NCc1ccccc1)N1CCN(CC2CC3=C(O2)c2cc(F)ccc2Oc2ccccc23)CC1` (stereo not drawn) [Compound 88]: the IC50 was 158 nM in test [1] (setting [5]), 100 nM in test [2] (setting [6]), 1580 nM in test [3] (setting [7]) and 1260 nM in test [4] (read-out: h-D2L (converted)).
In the case of `COC(=O)CC(=O)N(C)C[C@H]1CC2=C(O1)c1cc(F)ccc1Cc1ccccc12` [Compound 112], the IC50 in test [1] (setting [5]) is 200 nM; in test [2] (setting [6]), 63.1 nM; in test [3] (setting [7]) it was 7940 nM.
For `CNCC1CC2=C(O1)c1ccccc1Cc1cccc(F)c12` (stereo not drawn) [Compound 132], in that order: 10 nM, 3.98 nM and 63.1 nM.
`CNCC1CC2=C(O1)c1ccccc1Cc1ccc(C#N)cc12` (stereo not drawn) [Compound 133]: the IC50 was 25.1 nM in test [1] (setting [5]), 316 nM in test [3] (setting [7]) and 2040 nM in test [4] (read-out: h-D2L (converted)).
